Like-named read-outs stand apart in the source and are kept apart here. Where a SMILES comes first, the peptide text is derived from it. Where no end group is shown, it is not given here. [ ]: non-standard residue; d: D form. pGlu = O=C1CC[C@@H](C(=O)O)N1
What was measured:
[1] = target: TRH receptor of GH4C1 cells (TRHR-1) (UniProt Q01717); test: radioligand binding on whole GH4C1 cells
[2] = target: Thyrotropin-releasing hormone receptor 2 (TRHR-2), rat, expressed in HEK293s cells from pCDNA3-TRHR2 (rat); test: radioligand binding on whole cells, 293S/TRH-R clonal cell line
[3] = target: Thyrotropin-releasing hormone receptor 2 (TRHR-2), rat, expressed in HEK293s cells from pCDNA3-TRHR2 (rat); test: saturation radioligand binding on whole HEK 293 cells expressing TRHR-2
TRHR-2 [4] = target: T1, TRHR-2 (Rattus norvegicus, UniProt A6IZR3); test: 3H-TRH radioligand binding on whole HEK293s cells stably expressing TRHR-2
T1 construct: expressed in transfected cells; host or cells: HEK293s
T1 sequence (A6IZR3 1-352): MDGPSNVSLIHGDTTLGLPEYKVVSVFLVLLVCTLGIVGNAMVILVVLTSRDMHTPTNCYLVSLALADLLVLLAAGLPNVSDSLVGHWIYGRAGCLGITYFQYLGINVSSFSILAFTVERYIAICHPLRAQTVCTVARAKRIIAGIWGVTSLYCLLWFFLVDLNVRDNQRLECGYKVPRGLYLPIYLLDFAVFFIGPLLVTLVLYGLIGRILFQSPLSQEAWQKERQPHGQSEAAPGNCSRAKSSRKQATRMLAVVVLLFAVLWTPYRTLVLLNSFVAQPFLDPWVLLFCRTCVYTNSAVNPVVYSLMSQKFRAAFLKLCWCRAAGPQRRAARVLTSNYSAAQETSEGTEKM
Method: (§1) The TRH binding assay was performed on whole cells. Transfected cells were washed twice with HBSS (Gibco BRL, cat# 14065) supplemented with 0.05% bovine serum albumin, detached by gentle pipetting and aliquoted in eppendorf tubes for binding assays. One twentieth of the cells collected from a confluent 75 cm^2 flask was used per assay point. The binding reaction was performed in a total volume of […] of binding buffer (HBSS+0.05% bovine serum albumin) containing the transfected cells and 10 nM of^3H-thyrotropin releasing hormone (Peninsula Laboratories Inc, cat # 7501) with or without unlabelled competitors. Non-specific binding was estimated in the presence of 1 mM of unlabelled TRH. Reactions were carried out for 60 min at room temperature and reactions were stopped by filtration through Unifilters-96 GF/B filters (Canberra Packard cat # 6005177) using the 96-well Filtermat 196 filtration system from Canberra Packard. The filters were washed 3 times with 1 ml of washing buffer (50 mM Tris(HCl), 3 mM MgCl2, pH 7.0). They were then dried at 55° C. for one hour and 50 μl of mScint-20 (Canberra Packard) was added per well. Filters were counted with the Topcount microplate counter from Canberra Packard.
HEK293s cells in a 10 cm petri dish were transfected with […] pCDNA3-TRHR2. After 14 days of selection in culture medium containing 600 μg/ml G418, resistant colonies were pooled. Then, single clones were purified by 2 rounds of limited dilution in 96 well plates. Clones of HEK293s cells expressing different levels of TRHR-2 receptor were selected using a 3H-TRH binding assay.

[5] = target: T2, TRH receptor (TRHR-1) of GH4C1 cells (Rattus norvegicus, UniProt Q01717); test: 3H-TRH radioligand binding on GH4C1 cells
T2 construct: endogenous in cells; host or cells: GH4C1
T2 sequence (Q01717 1-412): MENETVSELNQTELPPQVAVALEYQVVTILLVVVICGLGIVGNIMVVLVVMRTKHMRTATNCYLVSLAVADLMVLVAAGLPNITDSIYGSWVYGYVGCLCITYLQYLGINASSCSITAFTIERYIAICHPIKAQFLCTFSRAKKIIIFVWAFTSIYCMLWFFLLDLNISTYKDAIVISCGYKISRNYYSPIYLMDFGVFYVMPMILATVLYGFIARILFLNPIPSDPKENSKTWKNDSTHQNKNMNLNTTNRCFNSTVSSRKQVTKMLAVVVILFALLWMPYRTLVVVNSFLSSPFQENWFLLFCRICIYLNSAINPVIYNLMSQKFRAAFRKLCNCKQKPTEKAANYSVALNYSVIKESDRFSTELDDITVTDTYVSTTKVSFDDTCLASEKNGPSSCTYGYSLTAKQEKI

TRHR-2 [6] = target: T1, TRHR-2; test: Intracellular calcium mobilization (Fura 2) in HEK293/TRHR-2 cells; format: cell-based
Method: Intracellular calcium concentration changes where determined by fluorescence measurement of the intracellular, calcium-sensitive indicator Fura 2. Briefly, HEK293s cells were grown on glass cover slips in culture medium at 37° C., 5% CO2 and diluted 10 fold every 3 days. The cells were loaded at room temperature for 30 min using […] of is Fura 2/AM in simplified Grace's solution (SGS buffer) physiological buffer (NBS: 135 mM NaCl, 5 mM KCl, 1.8 mM CaCl2, 1.2 mM MgSO4, 10 mM HEPES, pH 7.4). Fura 2/AM is a membrane permeant, calcium-insensitive ester of Fura 2. After three washes in Fura-2 /AM-free buffer, the cells were incubated for 15 to 30 min in SGNBS at room temperature to insure full hydrolysis of the Fura 2 ester. The calcium-sensitive, hydrolyzed form of Fura 2 remains trapped intracellularly. Experiments were conducted at room temperature on single cells or small groups of 3 to 7 cells in a coverslip holder fitted to the stage of an IMT-2 inverted microscope equipped with a 40×-epifluorescence objective (UVFL40, 0.85, Olympus Optical Co, Tokyo) and coupled to a PTI ratio fluorescence system (Photon Technology International, London, Ontario, Canada). Sample illumination was provided by a 75 W xenon light source attached to a filter-based light chopper unit which provided 340 and 380 nm excitation wavelength alternating at a frequency of 5 Hz. The emitted light was passed through an adjustable rectangular aperture followed by a 505 nm interference filter (10-nm bandwidth), and its intensity was recorded by a photon counter detector. Dye leakage, as determined by loss of fluorescence over a period of 30 min, was undetectable at both excitation wavelengths.
The ratio of the fluorescence intensity at the two excitation wavelengths can be converted into an estimate of ionized intracellular calcium concentration by use of the formula: [Ca^2+]i=Kd×(Fmin/Fmax)×(R-Rmin)/(Rmax-R), where R, Rmin, and Rmax are the fluorescence ratios recorded during the experiment (R) and during calibration tests on unlysed cells using […] ionomycin in SGNBS (Rmax), followed by 10 mM EGTA addition at pH 8.2 (Rmin). Fmin and Fmax are the corresponding fluorescence intensities for the 380 nm excitation and Kd is the Fura-2 dissociation constant at room temperature (135 nM).
Small volumes (10-50 μl) of drugs (hormones, agonists, neurotransmitters, TRH, bradykinin) from prediluted stock solutions prepared in the appropriate buffer solutions were directly added to the experimental chamber.

[7] = I.C.V. injection, on a molar basis (Boschi et al. 1983); cited from earlier work
[8] = target: Thyrotropin-releasing hormone receptor 2 (TRHR-2), rat, expressed in HEK293s cells from pCDNA3-TRHR2 (rat); test: competition with 3H-TRH tracer on whole cells, 293S/TRH-R clonal cell line
[9] = target: T3, Thyrotropin-releasing hormone receptor 2 (TRHR-2), rat, expressed in HEK293s cells from pCDNA3-TRHR2 (rat); test: as above
T3 construct: 352 amino acid open reading frame cloned from a rat brain stem-spinal cord cDNA library; also called TRH receptor 2; 293S/TRH-R clonal cell line
T3 chain: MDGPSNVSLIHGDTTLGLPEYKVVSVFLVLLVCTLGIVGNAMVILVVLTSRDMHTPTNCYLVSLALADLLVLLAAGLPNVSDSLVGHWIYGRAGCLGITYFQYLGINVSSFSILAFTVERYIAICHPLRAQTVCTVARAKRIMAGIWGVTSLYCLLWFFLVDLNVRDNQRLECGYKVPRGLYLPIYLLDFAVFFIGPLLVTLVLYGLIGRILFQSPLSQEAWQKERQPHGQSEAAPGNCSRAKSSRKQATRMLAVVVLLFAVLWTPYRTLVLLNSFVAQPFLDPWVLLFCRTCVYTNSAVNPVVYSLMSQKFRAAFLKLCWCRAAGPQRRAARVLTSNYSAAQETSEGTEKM
Method: as §1, with “cm²” for “cm^2”, “of ³H-thyrotropin” for “of^3H-thyrotropin”, “MgCl_2,” for “MgCl2,”, “µl” for “μl”
(§2) A binding reaction was performed using HEK 293 cells expressing TRHR-2. […] Various TRH-related peptides were used in competition experiments.

[10] = target: T3, Thyrotropin-releasing hormone receptor …; test: 3H-TRH competition on cells expressing TRHR-2 (assay not restated in the sentence)
Method: as §1, with “cm²” for “cm^2”, “of ³H-thyrotropin” for “of^3H-thyrotropin”, “MgCl_2,” for “MgCl2,”, “µl” for “μl”
as §2

[11] = 293S/TRH-R clonal cell line, three independent experiments, read-out: IC50
[12] = HEK 293 cells expressing TRHR-2, read-out: IC50 in competition with 3H-TRH as tracer
[13] = GH4C1 cells, three independent experiments
[14] = nanomolar concentrations of TRH

Molecule: 3H-thyrotropin releasing hormone (tritium-labelled TRH, Peninsula Laboratories) (peptide)
- BMAX [1]: 577 fmol/mg
- Kd [1]: 5.32 nM
- BMAX [2]: 535 fmol/mg
- Kd [2]: 6.17 nM
- Bmax (fmol/mg proteins) [3]: 430
- Kd [3]: 2.5 nM

Molecule: NC(=O)[C@@H]1CCCN1C(=O)[C@H](Cc1cnc[nH]1)NC(=O)[C@@H]1CCC(=O)N1 [TRH, pyroglutamic acid-histidine-proline-amide]
- IC50 (TRHR-2 [4]; [11]): 8.39 ± 2.31 nM
- IC50 (TRHR-2 [4]; [12]): 8.3 nM
- IC50 [5, 13]: 5.33 ± 2.81 nM
- need of extracellular calcium for the transient rise in [Ca++]i (TRHR-2 [6]): did not require the presence of extracellular calcium
- change of intracellular calcium concentration (TRHR-2 [6]; [14]): marked transient increase in the intracellular calcium concentration
- time to peak of [Ca++]i (TRHR-2 [6]; [14]): about 1 second
- time until baseline [Ca++]i was attained (TRHR-2 [6]; [14]): about 1 minute
- analgesia relative to morphine [7]: twice as great

Molecule: Cn1cnc(C[C@H](NC(=O)[C@@H]2CCC(=O)N2)C(=O)N2CCC[C@H]2C(N)=O)c1 [pGlu-3-methyl-His-Pro-amide]
- IC50 (TRHR-2 [4]; [12]): 2.2 nM
- IC50 [5, 13]: 0.43 ± 0.27 nM

Molecule: NC(=O)[C@@H]1CCCN1C(=O)[C@H](CCC(=O)O)NC(=O)[C@@H]1CCC(=O)N1 [pGlu-Glu-Pro-amide] ([pGlu]-Glu-Pro-NH2)
- IC50 (TRHR-2 [4]; [11]): > 10000 nM
- IC50 (TRHR-2 [4]; [12]): > 10000 nM
- IC50 [5, 13]: > 10000 nM

Molecule: O=C(O)CNC(=O)[C@@H]1CCCN1C(=O)[C@H](Cc1c[nH]cn1)NC(=O)[C@@H]1CCC(=O)N1 [pGlu-His-Pro-Gly] ([pGlu]HPG-OH; C-terminus assumed)
- IC50 (TRHR-2 [4]; [11]): 641 ± 75.2 nM
- IC50 (TRHR-2 [4]; [12]): 640 nM
- Ki (TRHR-2 [4]; read-out: Ki value to the TRHR-2 receptor): 640 nM
- binding to GH4C1 cells [5]: does not show any binding
- IC50 [5, 13]: > 10000 nM

Molecule: Thyrotropin-releasing hormone (TRH), pGlu-His-Pro-amide, unlabelled (peptide)
- IC50 [8]: 8.39 nM

Molecule: ^3H-thyrotropin releasing hormone [^3H-TRH]
- Kd (TRHR-2 [4]; 293S/TRH-R clonal cell line, three independent experiments, read-out: Kd): 6.17 ± 1.51 nM
- Kd (TRHR-2 [4]; HEK 293 cells expressing TRHR-2, saturation binding, read-out: estimated Kd for 3H-TRH): 2.5 nM
- Kd [5, 13]: 5.32 ± 1.63 nM

Molecule: pGlu-3-methyl-His-Pro-amide (peptide)
- IC50 [8]: 2.2 nM

B1: pGlu-His-Pro-Gly (peptide)
peptide: [pGlu]HPG
notes: TRH-related peptide with a modified C-terminus
- IC50 [9]: 641 nM
- Ki [10]: 640 nM

From US6441133B1, “Thyrotropin-releasing hormone receptor 2(TRHR-2)” (AstraZeneca Canada Inc., priority 1996, dated 2002)
